Calls of active or inactive are those of the source.
How the values were obtained:
[1] = biological target: Glyceraldehyde-3-phosphate dehydrogenase (Homo sapiens, UniProt P04406)
[2] = NIH-3T3 fibroblast cytotoxicity, dose response, cytotoxicity control, cell-based, fluorescence, Alamar Blue, secondary assay (AID 2327); format: functional;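 note: NIH-3T3 mouse fibroblasts cultured with fluconazole at 8 µg/mL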
[3] = fluconazole-exposed Candida albicans growth modulators – fluorescence, retest, confirmation (AID 2467); format: functional, cell-based
[4] = biological target: Albumin (Bos taurus, UniProt P02769); assay: Counterscreen for inhibitors of T-cell receptor (TCR)-CD3 interaction: Fluorescence-based biochemical high throughput dose response assay to identify inhibitors of T-cell receptor (TCR)-CD3 interaction using a TAMRA-labeled BSA probe.; format: functional
Chain of Albumin (P02769 whole entry): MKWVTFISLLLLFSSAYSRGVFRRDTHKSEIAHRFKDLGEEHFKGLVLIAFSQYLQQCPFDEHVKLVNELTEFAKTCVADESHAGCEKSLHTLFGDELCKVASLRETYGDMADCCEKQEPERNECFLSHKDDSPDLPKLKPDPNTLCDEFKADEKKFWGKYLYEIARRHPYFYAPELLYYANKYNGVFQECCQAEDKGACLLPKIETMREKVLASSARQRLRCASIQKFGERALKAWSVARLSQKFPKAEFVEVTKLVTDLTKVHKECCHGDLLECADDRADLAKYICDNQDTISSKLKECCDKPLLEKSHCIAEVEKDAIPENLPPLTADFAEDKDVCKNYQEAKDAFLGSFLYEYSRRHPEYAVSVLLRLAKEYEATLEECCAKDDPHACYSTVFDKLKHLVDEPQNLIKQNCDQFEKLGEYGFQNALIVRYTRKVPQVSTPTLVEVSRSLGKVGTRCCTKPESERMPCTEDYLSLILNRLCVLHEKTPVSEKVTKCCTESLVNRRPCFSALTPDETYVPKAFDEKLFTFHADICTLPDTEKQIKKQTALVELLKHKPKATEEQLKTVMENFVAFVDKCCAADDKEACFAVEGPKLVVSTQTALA

[5] = tested on: Vero; assay: viability of Vero cells under compound – cytotoxicity control for flavivirus capping enzyme inhibitors (AID 588742); format: functional; conditions: Chlorocebus sabaeus
[6] = biological target: Genome polyprotein (dengue virus type 2, UniProt P29990); assay: flavivirus cap methylation enzyme inhibition – biochemical, confirmation dose response, primary screen (AID 588689); format: functional
Chain of Genome polyprotein (P29990 2492-3391 limits assumed): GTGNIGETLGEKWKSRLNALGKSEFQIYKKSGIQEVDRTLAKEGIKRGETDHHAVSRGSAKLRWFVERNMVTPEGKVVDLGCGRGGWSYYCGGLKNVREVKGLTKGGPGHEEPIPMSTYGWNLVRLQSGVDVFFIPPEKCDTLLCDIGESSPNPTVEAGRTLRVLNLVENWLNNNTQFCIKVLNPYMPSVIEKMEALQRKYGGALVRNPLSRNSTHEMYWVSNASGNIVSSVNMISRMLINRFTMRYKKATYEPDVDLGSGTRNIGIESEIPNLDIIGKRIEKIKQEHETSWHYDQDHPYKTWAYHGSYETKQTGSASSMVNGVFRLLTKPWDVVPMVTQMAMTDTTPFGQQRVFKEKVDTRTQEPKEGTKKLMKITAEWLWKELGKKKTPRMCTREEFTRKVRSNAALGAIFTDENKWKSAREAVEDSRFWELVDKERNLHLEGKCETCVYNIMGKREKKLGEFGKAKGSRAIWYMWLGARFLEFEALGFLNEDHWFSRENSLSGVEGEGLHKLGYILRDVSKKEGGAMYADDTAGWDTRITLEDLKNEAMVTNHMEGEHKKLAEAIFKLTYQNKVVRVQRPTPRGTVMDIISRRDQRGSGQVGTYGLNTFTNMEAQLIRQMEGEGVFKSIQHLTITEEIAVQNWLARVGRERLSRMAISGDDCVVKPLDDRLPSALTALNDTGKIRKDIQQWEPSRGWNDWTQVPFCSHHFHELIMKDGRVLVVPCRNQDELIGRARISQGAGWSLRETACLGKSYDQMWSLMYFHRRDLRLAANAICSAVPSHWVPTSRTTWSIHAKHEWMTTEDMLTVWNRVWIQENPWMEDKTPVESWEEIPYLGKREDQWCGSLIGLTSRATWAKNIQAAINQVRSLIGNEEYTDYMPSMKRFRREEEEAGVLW

[7] = biological target: Nonstructural protein 1 (Influenza A virus, UniProt Q194T2); format: functional, Influenza A virus (A/California/07/2009(H1N1))
Chain of Nonstructural protein 1 (Q194T2 whole entry): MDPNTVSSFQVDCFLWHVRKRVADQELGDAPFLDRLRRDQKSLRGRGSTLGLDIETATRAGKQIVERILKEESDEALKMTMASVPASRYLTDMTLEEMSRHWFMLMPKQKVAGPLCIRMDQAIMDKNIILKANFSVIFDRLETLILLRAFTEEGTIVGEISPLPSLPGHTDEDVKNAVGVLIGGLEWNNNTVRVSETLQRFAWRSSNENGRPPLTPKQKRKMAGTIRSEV

[8] = biological target: Induced myeloid leukemia cell differentiation protein Mcl-1 (Homo sapiens, UniProt Q07820); format: functional
Chain of Induced myeloid leukemia cell differentiation protein Mcl-1 (Q07820 whole entry): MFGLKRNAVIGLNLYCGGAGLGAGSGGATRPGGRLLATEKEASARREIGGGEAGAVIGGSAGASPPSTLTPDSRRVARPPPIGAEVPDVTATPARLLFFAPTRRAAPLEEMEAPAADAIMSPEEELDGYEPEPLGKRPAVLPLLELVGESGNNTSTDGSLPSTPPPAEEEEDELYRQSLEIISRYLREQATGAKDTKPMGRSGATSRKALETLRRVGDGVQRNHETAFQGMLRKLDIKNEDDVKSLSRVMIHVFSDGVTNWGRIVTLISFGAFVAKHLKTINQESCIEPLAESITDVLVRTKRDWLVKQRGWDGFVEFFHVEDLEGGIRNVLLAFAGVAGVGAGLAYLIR

[9] = tested on: Streptococcus; assay: GAS UMAA2166 growth inhibition – luminescence, BacTiterGlo, counter-screen for streptokinase expression inhibitor project, dose response (AID 1915); format: functional, organism-based;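 note: potency for reduction of bacterial viability or growth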
[10] = tested on: Streptococcus sp. 'group A'; assay: Streptococcus pyogenes SK(-)GAS viability under kanamycin – luminescence, BacTiterGlo, confirmation, counter-screen for streptokinase expression inhibitor project, dose response (AID 1900); format: functional, organism-based
[11] = biological target: T1, Streptokinase A (Streptococcus pyogenes serotype M1, UniProt P10520); assay: viability-normalized secreted streptokinase activity reduction – plasminogen activation absorbance, OD405, dose response (AID 1914); format: functional, Streptococcus pyogenes M1 GAS;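 note: secreted streptokinase activity via plasminogen activation per viability signal from cell pellet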
T1 sequence (P10520 whole entry): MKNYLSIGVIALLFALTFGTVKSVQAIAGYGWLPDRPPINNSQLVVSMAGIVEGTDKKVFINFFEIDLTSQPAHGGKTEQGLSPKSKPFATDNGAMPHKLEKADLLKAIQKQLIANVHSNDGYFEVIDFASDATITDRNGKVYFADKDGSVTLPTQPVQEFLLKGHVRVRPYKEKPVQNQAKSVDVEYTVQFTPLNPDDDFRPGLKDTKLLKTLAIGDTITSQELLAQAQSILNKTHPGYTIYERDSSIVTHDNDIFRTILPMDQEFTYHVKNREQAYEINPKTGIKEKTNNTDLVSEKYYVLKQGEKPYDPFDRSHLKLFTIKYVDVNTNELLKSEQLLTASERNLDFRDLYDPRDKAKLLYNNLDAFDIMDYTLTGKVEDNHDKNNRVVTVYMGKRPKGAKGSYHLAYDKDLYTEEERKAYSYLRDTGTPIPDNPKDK

[12] = biological target: T2, Carboxy-terminal domain RNA polymerase II polypeptide A small phosphatase 1 (Homo sapiens, UniProt Q9GZU7); assay: CTDSP1 inhibitors, concentration-response, biochemical, absorbance readout, ultra-high-throughput screen actives (AID 540297); format: functional
T2 sequence (Q9GZU7 whole entry): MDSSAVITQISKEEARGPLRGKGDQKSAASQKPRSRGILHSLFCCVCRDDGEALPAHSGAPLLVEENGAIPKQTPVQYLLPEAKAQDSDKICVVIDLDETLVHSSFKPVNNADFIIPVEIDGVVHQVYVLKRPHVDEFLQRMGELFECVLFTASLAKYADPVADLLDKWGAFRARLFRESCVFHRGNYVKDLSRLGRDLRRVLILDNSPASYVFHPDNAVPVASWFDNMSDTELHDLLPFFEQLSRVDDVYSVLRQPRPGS

[13] = biological target: T3, Tyrosine-protein phosphatase non-receptor type 11 (Homo sapiens, UniProt Q06124); assay: PTPN11 enzyme inhibitors – biochemical, selectivity assay for STEP inhibitor project, dose response (AID 602367); format: functional; conditions: read-out: IC50_Mean
T3 sequence (Q06124 whole entry): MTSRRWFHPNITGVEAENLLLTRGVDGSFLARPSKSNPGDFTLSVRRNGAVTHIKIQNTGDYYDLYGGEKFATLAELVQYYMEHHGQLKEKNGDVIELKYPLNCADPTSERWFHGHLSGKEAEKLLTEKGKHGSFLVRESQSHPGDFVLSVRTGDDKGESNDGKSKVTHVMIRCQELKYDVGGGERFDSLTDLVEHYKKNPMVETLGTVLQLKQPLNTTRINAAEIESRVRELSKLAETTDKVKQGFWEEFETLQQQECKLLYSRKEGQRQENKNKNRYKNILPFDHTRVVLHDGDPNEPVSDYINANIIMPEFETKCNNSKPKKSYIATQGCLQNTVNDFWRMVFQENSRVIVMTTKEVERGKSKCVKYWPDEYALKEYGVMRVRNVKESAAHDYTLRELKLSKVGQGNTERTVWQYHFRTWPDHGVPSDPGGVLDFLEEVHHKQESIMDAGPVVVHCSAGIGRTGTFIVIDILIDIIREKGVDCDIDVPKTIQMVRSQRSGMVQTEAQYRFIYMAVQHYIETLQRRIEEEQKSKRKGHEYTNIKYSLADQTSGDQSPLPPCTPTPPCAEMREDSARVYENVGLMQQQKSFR

[14] = biological target: Dual specificity protein phosphatase 3 (Homo sapiens, UniProt P51452); assay: VHR phosphatase inhibition, dose response, selectivity assay for STEP inhibitor project, biochemical (AID 602374); format: functional; conditions: read-out: IC50_Mean
Chain of Dual specificity protein phosphatase 3 (P51452 whole entry): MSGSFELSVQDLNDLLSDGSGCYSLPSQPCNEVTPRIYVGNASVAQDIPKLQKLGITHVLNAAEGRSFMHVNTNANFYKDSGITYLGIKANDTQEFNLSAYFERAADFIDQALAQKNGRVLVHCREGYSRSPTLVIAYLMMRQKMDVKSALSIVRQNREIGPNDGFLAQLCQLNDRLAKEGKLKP

[15] = biological target: T4, Tyrosine-protein phosphatase non-receptor type 5 (Homo sapiens, UniProt P54829); assay: PTPN5 enzyme inhibition – biochemical, fluorescence intensity, uHTS hits, confirmation (AID 602372); format: functional; conditions: read-out: IC50_Mean
T4 sequence (P54829 whole entry): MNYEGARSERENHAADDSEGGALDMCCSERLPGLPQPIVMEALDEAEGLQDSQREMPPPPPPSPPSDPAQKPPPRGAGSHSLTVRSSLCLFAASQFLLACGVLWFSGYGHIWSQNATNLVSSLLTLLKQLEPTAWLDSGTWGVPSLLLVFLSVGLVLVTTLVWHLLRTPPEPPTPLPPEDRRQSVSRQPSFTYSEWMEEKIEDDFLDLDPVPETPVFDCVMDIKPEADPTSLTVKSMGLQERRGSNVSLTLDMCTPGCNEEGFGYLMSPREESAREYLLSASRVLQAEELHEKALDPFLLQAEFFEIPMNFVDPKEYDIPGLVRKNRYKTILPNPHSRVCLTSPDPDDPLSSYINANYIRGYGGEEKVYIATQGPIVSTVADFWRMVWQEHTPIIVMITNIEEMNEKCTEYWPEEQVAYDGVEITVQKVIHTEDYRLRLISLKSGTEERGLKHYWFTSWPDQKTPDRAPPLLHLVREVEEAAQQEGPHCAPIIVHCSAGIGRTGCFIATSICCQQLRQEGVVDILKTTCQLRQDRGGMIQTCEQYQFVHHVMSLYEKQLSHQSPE

[16] = cells; format: functional, cell-based
[17] = cells; format: functional, cell-based; remark: listed apart in the source

Chain of Glyceraldehyde-3-phosphate dehydrogenase (P04406 whole entry): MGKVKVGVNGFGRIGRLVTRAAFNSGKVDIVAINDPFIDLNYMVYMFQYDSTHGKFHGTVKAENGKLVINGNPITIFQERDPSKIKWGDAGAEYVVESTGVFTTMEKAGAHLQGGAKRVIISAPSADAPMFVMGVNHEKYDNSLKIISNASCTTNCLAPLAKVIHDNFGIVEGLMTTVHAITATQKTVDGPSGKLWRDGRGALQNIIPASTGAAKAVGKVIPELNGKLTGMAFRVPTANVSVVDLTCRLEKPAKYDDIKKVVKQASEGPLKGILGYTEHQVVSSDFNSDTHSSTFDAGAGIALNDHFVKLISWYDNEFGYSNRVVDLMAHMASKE

O=C1C(Cl)=C(N2CCN(Cc3ccccc3)CC2)C(=O)N1c1ccc(C(F)(F)F)cc1
IC50 [1]: > 50 µM (inconclusive)

COc1ccc(C)cc1NC(=O)NNC(=O)c1cc2ccccc2cc1O
EC50 [2]: 22.7 µM (inconclusive)
EC50 [3]: > 38 µM (not active)
IC50 [4]: > 94.1 µM (inactive)

O=[N+]([O-])c1cc(Cl)cc(/C=N/NC(=S)Nc2ccc(S(=O)(=O)N3CCOCC3)cc2)c1O
CC50 [5]: 38.3 µM (active)
IC50 [6]: > 100 µM (active)
EC50 [2]: > 160 µM (inactive)
IC50 [7]: 3.52 µM (active)
EC50 [3]: > 38 µM (not active)
IC50 [8]: 3.47 µM (active)
IC50 [4]: > 94.1 µM (inactive)

O=C(NC(=S)NNC(=O)c1cccs1)c1ccccc1
EC50 [9]: 21.2 µM (active)
EC50 [10]: 3.79 µM (active)
EC50 [11]: > 150 µM (not active)
IC50 [4]: > 94.1 µM (inactive)

CCOc1ccc(/C=N/NC(=O)c2cc3c(OC)cccc3[nH]2)cc1
IC50 [12]: 3.08 µM (active)
IC50 [13]: 1.65 µM (active)
IC50 [14]: 1.85 µM (active)
IC50 [15]: 13.2 µM (active)

Cc1c(/C=N/NC(N)=O)c2ccccn2c1C(=O)c1ccncc1
EC50 [16]: > 350 µM (not active)
EC50 [17]: > 350 µM (not active)
